{"source": "patent US20050053931A1", "about": "“Method for the diagnosis and therapy of renal cell carcinoma” (priority 2001, published 2005)", "key": {"glioma cells": {"tested_on": "glioma cells", "conditions": "upon adenoviral Nbk gene transfer with Ad-TreNbk-tTA; cited from earlier work"}, "[1]": {"tested_on": "mycNbk expression in DU145 prostate carcinoma cells", "assay": "Conditional expression of mycNbk after Ad-TreNbk-tTA infection (Western blot)", "format": "cell-based, human", "conditions": "24 h after infection with Ad-TreNbk-tTA at 25 MOI", "description": "For regulable expression of the pro-apoptotic gene Nbk in human cells, an adenoviral vector based on the adenovirus serotype 5 backbone was constructed. In this construct, the E3 region was replaced by the expression cassette for the tTA and the E1 region was replaced by an expression cassette for Nbk. To allow for convenient detection of the exogenous Nbk, a myc tag was inserted at the N-terminus of the human Nbk cDNA. Constitutive expression of the tTA was achieved by putting the tTA under the control of a CMV promoter. In the absence of tetracyclin or doxycyclin the tTA fusion protein binds via the TetR portion to the TRE in the PhCMV* promoter and activates via the VP16AD portion the transcription of the mycNbk. In the presence of tetra- or doxycyclin Nbk expression is repressed and switched off.\nThe recombinant adenovirus Ad-TreNbk-tTA (FIG. 7A) was employed for expression of the myc tagged Nbk (mycNbk) in a doxycyclin dependent manner. […] Apart from DU145, Nbk could be strongly expressed by the use of this adenoviral vector 24 h after transduction in a panel of other carcinomas or non-epithelial tumor cells, i.e. sarcoma, glioma and other mesenchymal cell types.\nApoptosis was determined by the use of a modified cell cycle analysis technique that relies on the measurement of cellular DNA content on the single cell level by flow cytometry. […]"}}, "note": "Residues, ends and D or L forms follow the SMILES beside them. *: point of attachment. Cbz = O=C(OCc1ccccc1)*"}
{"smiles": "CC(C)C[C@@H](C=O)NC(=O)[C@H](CC(C)C)NC(=O)[C@H](CC(C)C)NC(=O)OCc1ccccc1", "note": "[MG132] (Cbz-Leu-Leu-Leu-aldehyde)", "values": [{"measurement": "Nbk expression levels", "setting": "glioma cells", "value": "enhanced Nbk expression levels"}, {"measurement": "sensitivity for Nbk-induced apoptosis", "setting": "glioma cells", "value": "increased sensitivity for Nbk-induced apoptosis"}]}
{"smiles": "C[C@H]1c2cccc(O)c2C(O)=C2C(=O)[C@]3(O)C(O)=C(C(N)=O)C(=O)[C@@H](N(C)C)[C@@H]3[C@@H](O)[C@@H]21", "note": "[doxycyclin]", "values": [{"measurement": "doxycyclin concentration at which Nbk expression is almost completely suppressed", "setting": "[1]", "value": "≥ 10", "unit": "ng/mL"}]}
